Results from patent publication US4910199A, “Imidazo[1,2-]pyridazines for cortical cholinergic deficiencies” (Sanofi, priority 1987, dated 1990).

Experiments:
[1] = system: rotatory behavior induced by intrastriatal pirenzepine; assay: antagonism of rotatory behavior induced by intrastriatal injection of pirenzepine in mice; type: in vivo, mouse (female, Swiss, CD 1); conditions: Mus musculus, ip; 50% reduction in number of rotations; i.p. 15 minutes before pirenzepine 1 μg into right striatum
Experimental: The intrastriatal injection of PZ into mice induces rotatory behavior. The antagonism of this behavior by the products according to the invention was studied. The products according to the invention are injected intraperitoneally (i.p.) after solubilization in distilled water or suspension in a 5% solution of gum arabic. The control animals receive an injection of the pure solvent under the ssame conditions. The animals used are female mice (Swiss, CD 1, Charles River, France) with a body weight of between 25 and 30 grams. The pirenzepine is dissolved in a phosphate buffer and the pH of the solution is 6. The test products of their solvents are injected intraperitoneally in a volume of 0.4 ml per 20 g of body weight, 15 minutes before a direct injection of pirenzepine into the right striatum of the mouse at a dose of 1 μg in 1 μl of solvent, according to the method described by P. WORMS et al. in Eur. J. Pharmacol., 1986, 121, 395-401. The number of contralateral rotations (rotations in the opposite direction to the side injected) was counted for three 2-minute periods after injection of the pirenzepine: 2nd to 4th, 8th to 10th and 13th to 15th minutes. Each treatment consists of 3 to 4 doses with 10 animals per dose. The total number of rotations and the percentage antagonism with respect to the control group are calculated for each treatment. The 50% effective dose (ED50), i.e. the dose which causes a 50% reduction in the number of rotations induced by pirenzepine, is determined graphically for each product.

[2] = biological target: T1, M1-type muscarinic cholinergic receptor (Rattus norvegicus, UniProt P08482); assay: affinity for the M1-type muscarinic cholinergic receptor ([3H]-pirenzepine displacement, rat hippocampus homogenate); type: binding; conditions: for IC50: [3H]-PZ 1 nM, rat hippocampus homogenate, 2 h at 4° C., pH 7.40; for r = (M2/M1): ratio of the IC50 values for M2 (3H-NMS) and M1 (3H-pirenzepine), selectivity
T1 sequence (P08482 1-460): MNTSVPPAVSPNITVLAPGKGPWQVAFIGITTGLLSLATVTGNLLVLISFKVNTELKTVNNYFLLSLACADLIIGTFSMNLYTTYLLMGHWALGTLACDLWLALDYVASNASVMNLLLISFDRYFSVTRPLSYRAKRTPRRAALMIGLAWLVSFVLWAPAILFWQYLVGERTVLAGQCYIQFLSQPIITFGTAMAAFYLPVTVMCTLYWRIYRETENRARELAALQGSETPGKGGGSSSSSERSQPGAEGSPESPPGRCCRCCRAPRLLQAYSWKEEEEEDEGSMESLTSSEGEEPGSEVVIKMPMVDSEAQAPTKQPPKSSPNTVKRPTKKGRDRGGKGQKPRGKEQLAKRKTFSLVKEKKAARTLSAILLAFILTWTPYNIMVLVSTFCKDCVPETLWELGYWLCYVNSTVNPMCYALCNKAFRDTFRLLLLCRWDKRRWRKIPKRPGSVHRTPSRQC
Experimental: The interaction of the molecules with the M1 -type muscarinic receptors was studied by in vitro measurement, on a rat hippocampus homogenate, of the displacement of tritiated pirenzepine ([^3 H]-PZ) from its specific binding sites. Aliquots (10 μl) of a 5% (w/v) rat hippocampus homogenate in an Na2 HPO4 buffer (50 mM, pH 7.40) are incubated for 2 h at 4° C. in the presence of [^3 H]-PZ (76 Ci/nmol; final concentration 1 nM) and increasing concentrations of the test product. The final volume is 2 ml. The reaction is stopped by centrifugation for 10 min at 50 000×g. After decantation and washing of the residues, the bound radio-activity is counted by liquid scintillation. The non-specific binding is determined in the presence of 10 μM atropine sulfate. The 50% inhibitory concentration (IC50) is determined graphically.

[3] = biological target: T2, M2-type muscarinic cholinergic receptor (Cavia porcellus, UniProt H0VRN8); assay: affinity for the M2-type muscarinic cholinergic receptor ([3H]-N-methylscopolamine displacement, smooth guinea-pig ileum muscle homogenate); type: binding; conditions: [3H]-NMS 0.3 nM, 20 min at 30° C., pH 7.5
T2 construct: on a smooth guinea-pig ileum muscle homogenate; from tissue; host or cells: guinea-pig ileum smooth muscle homogenate
T2 sequence (H0VRN8 1-466): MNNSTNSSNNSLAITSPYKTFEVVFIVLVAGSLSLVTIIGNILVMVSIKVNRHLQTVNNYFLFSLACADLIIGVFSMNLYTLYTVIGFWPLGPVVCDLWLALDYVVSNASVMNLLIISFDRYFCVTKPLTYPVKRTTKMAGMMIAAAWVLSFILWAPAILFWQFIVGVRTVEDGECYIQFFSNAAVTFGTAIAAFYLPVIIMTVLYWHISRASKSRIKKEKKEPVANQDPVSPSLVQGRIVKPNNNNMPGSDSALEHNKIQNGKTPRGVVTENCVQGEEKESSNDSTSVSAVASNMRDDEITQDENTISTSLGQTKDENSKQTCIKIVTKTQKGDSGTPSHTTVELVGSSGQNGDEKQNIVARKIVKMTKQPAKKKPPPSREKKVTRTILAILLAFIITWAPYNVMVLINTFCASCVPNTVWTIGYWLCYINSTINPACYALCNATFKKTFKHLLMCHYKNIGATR
Experimental: The M1 -type receptors are concentrated in certain regions of the brain, such as the hippocampus, the cerebral cortex and the striatum, and also in the sympathetic ganglia. These binding sites can be selectively labeled with [^3 H]-pirenzepine ([^3 H]-PZ). The M2 -type rreceptors predominate in the heart and the ileum and can be labeled with [^3 H]-N-methylscopolamine ([^3 H]-NMS). The selectivity of the compounds of the invention with respect to the M1 and M2 sites was determined by studying their in vitro interaction with [^3 H]-PZ and [^3 H]-NMS firmly bound with a high affinity to rat hippocampus membranes and smooth guinea-pig ileum muscle, respectively.
The interaction with the M2 -type muscarinic receptors was studied by in vitro measurement, on a smooth guinea-pig ileum muscle homogenate, of the displacement of tritiated N-methylscopolamine ([^3 H]-NMS) from its specific binding sites. Aliquots (50 μl) of a 0.625% (w/v) smooth guinea-pig ileum muscle homogenate in HEPES buffer (20 mM) containing NaCl (100 mM) and MgCl2 (10 mM) (final pH: 7.5) are incubated for 20 min at 30° C. in the presence of [^3 H]-NMS ([…]; final concentration 0.3 nM) and increasing concentrations of the test products. The final volume is 1 ml. The reaction is topped by centrifugation for 5 min at 15 000×g. The non-specific binding is determined in the presence of 10 μM atropine sulfate. (Ref.: R. Hammer, C. P. Berrie, N. I. M. Birdsall, A. S. V. Burgen and E. C. Hulme, Nature, 283, 90-92, 1980; E. C. Hulme, N. I. M. Birdsall, A. S. V. Burgen and P. Mettha, Mol. Pharmacol., 14, 737-750, 1978.)
Table 5 indicates the affinities of the products of the invention for the M1 and M2 receptors. The results are expressed as 50 percent inhibitory concentrations (IC50), i.e. the concentration (in μM) which induces the displacement of 50% of the tritiated ligand bound to the membrane receptors. The IC50 for ^3 H-pirenzepine displacement represents the affinity for the M1 receptor; The IC50 for ^3 H-NMS displacement represents the affinity for the M2 receptor.

| IC50 [2] [nM] | r = (M2/M1) [2] | IC50 [3] [µM] | SMILES | ED50 [1] [mg/kg] |
| --- | --- | --- | --- | --- |
| – | – | – | c1ccc(-c2ccc3nc(CN4CCOCC4)cn3n2)cc1 [SR 95842 A] | 3 |
| – | – | – | c1ccc(-c2ccc3ncc(CN4CCOCC4)n3n2)cc1 [SR 96068 A] | 10 |
| 1500 | 66 | 100 | CCN(CC)Cc1cn2nc(-c3ccccc3)ccc2n1 [SR 96069 A] | – |
| – | – | – | CN(C)Cc1cnc2ccc(-c3ccccc3)nn12 [SR 96070 A] | 3 |
| 8000 | – | – | COc1cccc(-c2cc(C)c3ncc(CN4CCOCC4)n3n2)c1 [SR 96088 A] | – |
| 3000 | > 33 | > 100 | Clc1ccc(-c2ccc3nc(CN4CCOCC4)cn3n2)cc1 [SR 96089 A] | – |
| 400 | 162 | 65 | CCN(CC)Cc1cn2nc(-c3cccc(OC)c3)cc(C)c2n1 [SR 96095 A] | 5 |
| – | – | – | Clc1ccc(-c2ccc3ncc(CN4CCOCC4)n3n2)cc1 [SR 96109 A] | 8 |
| – | – | – | c1ccc(-c2cc(-c3ccccc3)c3ncc(CN4CCOCC4)n3n2)cc1 [SR 96111 A] | 7 |

| SMILES | IC50 [2] [nM] | r = (M2/M1) [2] | IC50 [3] [µM] | ED50 [1] [mg/kg] |
| --- | --- | --- | --- | --- |
| Cc1cc(-c2ccccc2)nn2c(CN3CCOCC3)cnc12.Cl.Cl [SR 95950 A, 8-Methyl-3-morpholinomethyl-6-phenylimidazo[1,2-b]pyridazine dihydrochloride] | 1400 | > 71 | > 100 | 5 |
| CCN(CC)Cc1cn2nc(-c3ccccc3)cc(C)c2n1.Cl.Cl [SR 96052 A, 2-Diethylaminomethyl-8-methyl-6-phenylimidazo[1,2-b]pyridazine dihydrochloride] | 500 | 130 | 65 | 8 |
